Experiments:
[1] = test system: Cotton Aphid (Aphis gossypii); experiment: whole plant or invertebrate; type: in vivo; conditions: 120 h
Description: • 2. Biological Examples II.1 Cotton Aphid (Aphis gossypii), Mixed Life Stages
The active compounds were formulated in 50:50 acetone: water and 100 ppm Kinetic® surfactant.
Cotton plants at the cotyledon stage (one plant per pot) were infested by placing a heavily infested leaf from the main colony on top of each cotyledon. The aphids were allowed to transfer to the host plant overnight, and the leaf used to transfer the aphids was removed. The cotyledons were dipped in the test solution and allowed to dry. After 5 days, mortality counts were made.

[2] = test system: Silverleaf Whitefly (Bemisia argentifolii); experiment: whole plant or invertebrate; type: in vivo; conditions: in Gossypium hirsutum, 72 h, 3 days after treatment, in comparison with untreated controls
Method: II.4 Silverleaf Whitefly (Bemisia argentifolii), Adult
The active compounds were formulated in 50:50 acetone:water and 100 ppm Kinetic® surfactant.
Selected cotton plants were grown to the cotyledon state (one plant per pot). The cotyledons were dipped into the test solution to provide complete coverage of the foliage and placed in a well-vented area to dry. Each pot with treated seedling was placed in a plastic cup and 10 to 12 whitefly adults (approximately 3-5 day old) were introduced. The insects were collected using an aspirator and an 0.6 cm, non-toxic Tygon® tubing (R-3603) connected to a barrier pipette tip. The tip, containing the collected insects, was then gently inserted into the soil containing the treated plant, allowing insects to crawl out of the tip to reach the foliage for feeding. The cups were covered with a reusable screened lid (150 micron mesh polyester screen PeCap from Tetko Inc). Test plants were maintained in the holding room at about 25° C. and 20-40% relative humidity for 3 days avoiding direct exposure to the fluorescent light (24 hour photoperiod) to prevent trapping of heat inside the cup. Mortality was assessed 3 days after treatment of the plants.

[3] = test system: Brown Planthopper (Nilaparvata lugens); experiment: whole plant or invertebrate; type: in vivo; conditions: in Oryza sativa, assessed 24, 48 and 72 hours after treatment, in comparison with untreated controls
Method: II.5 Brown Planthopper (Nilaparvata lugens)
The active compounds were formulated as a 20:80 acetone:water solution. Surfactant (Alkamuls EL 620) was added at the rate of 0.1% (vol/vol).
Potted rice plants of 3-4 weeks of age are sprayed with 10 ml of the test solution using air driven hand atomizer (Devillbis atomizer) at 1.7 bar. The treated plants are allowed to dry for about 1 hour and covered with Mylar cages. The plants are inoculated with 10 adults of the specie (5 male and 5 females) and kept at 25-27° C. and 50-60% humidity for 3 days. Mortality is assed after 24, 48 and 72 hours after treatment. Dead insects are usually found in the water surface. Each treatment is replicated once.

[4] = test system: Mediterranean fruitfly (Ceratitis capitata); conditions: eggs treated with 2500 ppm; 6 days
Method: II.9 Activity against Mediterranean fruitfly (Ceratitis capitata)
50 to 80 eggs were placed into microtiterplates filled with 0.5% agar-agar and 14% diet in water. The eggs were sprayed with 5 μl of the test solution, the plates were sealed with pierced foils and kept at 27-29° C. and 75-85% humidity under fluorescent light for 6 days. Mortality was assessed on the basis of the agility of the hatched larvae. Tests were replicated 2 times.

Structure (SMILES): Clc1cccc2c1CC(NC1=NCCS1)CC2 (centres unmarked) [compound 2a, (8-Chloro-1,2,3,4-tetrahydro-naphthalen-2-yl)-(4,5-dihydro-thiazol-2-yl)-amine]
- mortality at 300 ppm [1]: ≥ 50%

Structure (SMILES): COc1ccc2c(c1)CC(NC(=S)NCCOC(=O)c1ccccc1)CC2 (centres unmarked) [compound 16, Benzoic acid 2-[3-(7-methoxy-1,2,3,4-tetrahydro-naphthalen-2-yl)-thioureido]-ethyl ester]
- mortality at 300 ppm [2]: ≥ 50%

Structure (SMILES): COc1ccc2c(c1)CC(NC(=S)NCCOC(C)=O)CC2 (centres unmarked) [compound 17, Acetic acid 2-[3-(7-methoxy-1,2,3,4-tetrahydro-naphthalen-2-yl)-thioureido]-ethyl ester]
- mortality at 300 ppm [2]: ≥ 50%
- mortality at 300 ppm [3]: ≥ 50%

Structure (SMILES): COc1ccc2c(c1)CC(NC(=S)NCCO)CC2 (centres unmarked) [compound 18]
- mortality [4]: at least 50%
